We go through twelve compounds from the OPERA property sets (Mansouri et al. 2018).

In brackets after ≈: the same amount, converted by molar mass.

The conditions of this data set: 25 °C.

`Cc1c(C)c(C)c(C)c(C)c1C` gave a solubility of 1.45 µM (≈ 0.235 µg/mL). This counts as single-digit micromolar.
As for `CCCCCCCCC(=O)OC`, the solubility was determined as 133 µM (≈ 22.9 µg/mL).
In the case of `Fc1cccc2ccccc12`, the solubility was 353 µM (≈ 51.5 µg/mL).
As for `CC(=O)OCCBr`, the figure is 212000 µM (≈ 35400 µg/mL).
With `CCCCCCCc1ccccc1` the figure was 2.54 µM (≈ 0.447 µg/mL); with `CCCCCCCCC(C)=O`, 491 µM (≈ 76.8 µg/mL).
With `Cc1ccc(C)c(O)c1C` the figure was 11600 µM (≈ 1580 µg/mL).
For `Clc1cccc2ccccc12`, the solubility is 107 µM (≈ 17.4 µg/mL).
With `Fc1ccc(CCl)cc1` the figure was 2860 µM (≈ 413 µg/mL).
With `CC(Br)CCl` (configuration not stated) the figure was 14200 µM (≈ 2240 µg/mL).
As for `CCCCCCCCc1ccccc1`, the figure is 0.347 µM (≈ 0.066 µg/mL); as for `CCCCCCCC(C)=O`, 2610 µM (≈ 371 µg/mL).
